According to ChEMBL document CHEMBL1201862, “PubChem BioAssay data set” (2004):
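Following 48 hours of exposure in 96-well plates, responses at five concentrations were used to interpolate endpoints linearly. Here, GI50 denotes the concentration required for 50% inhibition of growth.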 Activity calls are given as the source filed them. Rule as the data show it: active = GI50 up to about 1.1 µM and inactive = higher.

Columns and labels:
Assay in all cases: NCI tumour cell line growth inhibition, 48 h
OVCAR-8 = tested on: OVCAR-8
NCI-H226 = tested on: NCI-H226
MDA-N = tested on: MDA-N
SW-620 = tested on: SW-620
NCI-H522 = tested on: NCI-H522
HOP-92 = tested on: HOP-92
BT-549 = tested on: BT-549
DMS-114 = tested on: DMS-114
SF-295 = tested on: SF-295
NCI/ADR-RES = tested on: NCI/ADR-RES
HCT-15 = tested on: HCT-15
SR = tested on: SR
HCT-116 = tested on: HCT-116
CAKI-1 = tested on: CAKI-1
PC-3 = tested on: PC-3
ACHN = tested on: ACHN
EKVX = tested on: EKVX
OVCAR-5 = tested on: OVCAR-5
MDA-MB-435 = tested on: MDA-MB-435
SNB-75 = tested on: SNB-75

SMILES	GI50 (OVCAR-8)	GI50 (NCI-H226)	GI50 (MDA-N)	GI50 (SW-620)	GI50 (NCI-H522)	GI50 (HOP-92)	GI50 (BT-549)	GI50 (DMS-114)	GI50 (SF-295)	GI50 (NCI/ADR-RES)	GI50 (HCT-15) [µM]	GI50 (SR)	GI50 (HCT-116)	GI50 (CAKI-1)	GI50 (PC-3)	GI50 (ACHN)	GI50 (EKVX)	GI50 (OVCAR-5)	GI50 (MDA-MB-435)	GI50 (SNB-75)
O=C1C=C(Nc2cccnc2)c2ccccc2C1=O	7.55 µM (inactive)	25.6 µM (inactive)	0.372 µM (active)	4.13 µM (inactive)	4.7 µM (inactive)	16.1 µM (inactive)	1.44 µM (inactive)	2.02 µM (inactive)	2.92 µM (inactive)	4.25 µM (inactive)	4.31	6.55 µM (inactive)	11.6 µM (inactive)	4.58 µM (inactive)	8.85 µM (inactive)	7.73 µM (inactive)	12.2 µM (inactive)	8.13 µM (inactive)	0.348 µM (active)	1.51 µM (inactive)
Cc1occ2c1C(=O)CC1C2[C@@H](O)CC2C(C)(C)CCC[C@]12C (stereo not given in full)	> 100 µM (inactive)	> 100 µM (inactive)		> 100 µM (inactive)	56.5 µM (inactive)	> 100 µM (inactive)		82.8 µM (inactive)	> 100 µM (inactive)		> 100	67.5 µM (inactive)	> 100 µM (inactive)			> 100 µM (inactive)	> 100 µM (inactive)			> 100 µM (inactive)
Nc1nncc2c1c(Br)cn2C1OC(CO)C(O)C1O (stereo not given)	1.49 µM (inactive)	> 100 µM (inactive)		5.69 µM (inactive)	31.3 µM (inactive)	8.63 µM (inactive)		9.35 µM (inactive)	39.6 µM (inactive)		4.23	2.99 µM (inactive)	9.68 µM (inactive)	3.21 µM (inactive)		15.1 µM (inactive)	25.6 µM (inactive)	> 62.2 µM (inactive)		13.7 µM (inactive)
O=C(/C=C\c1ccccc1O)c1ccc(O)cc1O	> 100 µM (inactive)	> 100 µM (inactive)		10.8 µM (inactive)	> 100 µM (inactive)	> 100 µM (inactive)		> 100 µM (inactive)	> 100 µM (inactive)		> 100	> 100 µM (inactive)	> 100 µM (inactive)	> 100 µM (inactive)		> 100 µM (inactive)	> 100 µM (inactive)	> 100 µM (inactive)		0.0128 µM (active)
COc1cc2cccc(/N=C\c3ccccc3Cl)c2cc1OC	> 100 µM (inactive)	> 100 µM (inactive)		26.5 µM (inactive)	> 100 µM (inactive)	> 100 µM (inactive)		35.2 µM (inactive)	69 µM (inactive)		25.5	3.94 µM (inactive)	80.7 µM (inactive)	> 100 µM (inactive)		> 100 µM (inactive)	> 100 µM (inactive)	> 100 µM (inactive)		> 100 µM (inactive)
O=C(Cc1ccccc1)N/N=C(/c1nc2ccc([N+](=O)[O-])cc2nc1O)C(O)c1ccc(C(O)/C(=N/NC(=O)Cc2ccccc2)c2nc3ccc([N+](=O)[O-])cc3nc2O)cc1 (stereo not given)	80.4 µM (inactive)	> 100 µM (inactive)		39.4 µM (inactive)	3.3 µM (inactive)	> 100 µM (inactive)		4.29 µM (inactive)	44.9 µM (inactive)		19.4	> 10 µM (inactive)	48.8 µM (inactive)	40.1 µM (inactive)		35.2 µM (inactive)	> 100 µM (inactive)	40.4 µM (inactive)		31.3 µM (inactive)
Cc1c(-c2ccccc2)c(=O)oc2ccc(Cl)cc12	53.3 µM (inactive)	> 100 µM (inactive)		> 100 µM (inactive)	33.7 µM (inactive)	32.7 µM (inactive)		26.6 µM (inactive)	> 100 µM (inactive)		> 100	> 100 µM (inactive)	38.1 µM (inactive)				64.7 µM (inactive)	> 100 µM (inactive)		16.1 µM (inactive)
CC(=O)c1ccc(NC(=O)C(=O)Nn2c(S)nc3ccccc3c2=O)cc1	> 100 µM (inactive)	> 100 µM (inactive)		> 100 µM (inactive)	> 100 µM (inactive)	> 100 µM (inactive)		> 100 µM (inactive)	> 100 µM (inactive)		> 100	> 100 µM (inactive)	> 100 µM (inactive)	> 100 µM (inactive)		> 100 µM (inactive)	> 100 µM (inactive)	> 100 µM (inactive)		> 100 µM (inactive)
CC(=O)c1cccc(NC(=O)/C(=N\NC(C)(C)C)c2c(O)c3ccccc3oc2=O)c1	> 100 µM (inactive)	> 100 µM (inactive)		> 100 µM (inactive)	> 100 µM (inactive)	> 100 µM (inactive)		> 100 µM (inactive)	> 100 µM (inactive)		> 100	> 100 µM (inactive)	> 100 µM (inactive)	> 100 µM (inactive)		> 100 µM (inactive)	> 100 µM (inactive)			39.2 µM (inactive)
N#CCc1ccc(C(C#N)/C(CCCC(=O)Nc2cccc([N+](=O)[O-])c2)=N\NC(=O)NN)cc1 (stereo not given)	> 100 µM (inactive)	> 100 µM (inactive)		> 100 µM (inactive)	> 100 µM (inactive)	> 100 µM (inactive)		> 100 µM (inactive)	> 100 µM (inactive)		> 100	> 100 µM (inactive)	> 100 µM (inactive)	> 100 µM (inactive)		> 100 µM (inactive)	> 100 µM (inactive)	> 100 µM (inactive)		> 100 µM (inactive)
COCC(C#N)NC1CC(OC2CC(O)(C(=O)CO)Cc3c(O)c4c(c(O)c32)C(=O)c2c(OC)cccc2C4=O)OC(C)C1O (stereo not given)	0.0676 µM (active)	0.0278 µM (active)	0.0975 µM (active)	0.033 µM (active)	0.0321 µM (active)	0.393 µM (active)	0.138 µM (active)	0.0361 µM (active)	0.0966 µM (active)	1.82 µM (inactive)	0.802	< 0.0111 µM (active)	0.0385 µM (active)	0.0388 µM (active)	0.0942 µM (active)	0.0581 µM (active)	0.5 µM (active)	0.247 µM (active)	0.108 µM (active)	0.0564 µM (active)
C=C[C@]1(C)CCC2=C(CCC3C2(C)CCC[C@]3(C)CO)C1 (stereo not given in full)	60.5 µM (inactive)	41.2 µM (inactive)		63.8 µM (inactive)	23 µM (inactive)	43.1 µM (inactive)		31.2 µM (inactive)	43.6 µM (inactive)		33	26.8 µM (inactive)	35.6 µM (inactive)	76 µM (inactive)		69.2 µM (inactive)	51.9 µM (inactive)	> 100 µM (inactive)		61.5 µM (inactive)
